Calls of active or inactive are those of the source. The calls are words filed in the database; no cut-off is given here.
Columns and labels:
SH-SY5Y [1] = test: cells; type: functional, cell-based; details: Homo sapiens, 48 h
HeLa = test: cells; type: functional, cell-based; details: Homo sapiens, 72 h
HepG2 [2] = test: cells; type: functional, cell-based; details: Homo sapiens, HepG2, 72 h
HepG2 [3] = test: cells; type: functional, cell-based; details: Homo sapiens, HepG2, 24 h
Histone deacetylase 11 = molecular target: T1, Histone deacetylase 11 (Homo sapiens, UniProt Q96DB2); test: Inhibition of human recombinant HDAC11 using fluorophore-conjugated substrate Boc-L-Lys(Ac)-AMC after 60 mins
T1 sequence (Q96DB2 whole entry): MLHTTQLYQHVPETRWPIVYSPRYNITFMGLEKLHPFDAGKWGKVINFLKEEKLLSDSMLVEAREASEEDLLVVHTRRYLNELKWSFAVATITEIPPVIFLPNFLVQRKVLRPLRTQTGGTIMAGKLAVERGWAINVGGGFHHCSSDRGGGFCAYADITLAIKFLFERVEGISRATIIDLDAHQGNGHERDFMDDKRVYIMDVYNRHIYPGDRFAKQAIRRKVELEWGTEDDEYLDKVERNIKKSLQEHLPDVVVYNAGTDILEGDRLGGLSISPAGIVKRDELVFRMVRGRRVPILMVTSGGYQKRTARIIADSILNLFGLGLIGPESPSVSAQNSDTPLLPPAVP

Histone deacetylase 9 = Histone deacetylase 9 (Homo sapiens, UniProt Q9UKV0); test: Inhibition of human recombinant HDAC9 using fluorophore-conjugated substrate Boc-L-Lys(Ac)-AMC after 60 mins
Chain of Histone deacetylase 9 (Q9UKV0 whole entry): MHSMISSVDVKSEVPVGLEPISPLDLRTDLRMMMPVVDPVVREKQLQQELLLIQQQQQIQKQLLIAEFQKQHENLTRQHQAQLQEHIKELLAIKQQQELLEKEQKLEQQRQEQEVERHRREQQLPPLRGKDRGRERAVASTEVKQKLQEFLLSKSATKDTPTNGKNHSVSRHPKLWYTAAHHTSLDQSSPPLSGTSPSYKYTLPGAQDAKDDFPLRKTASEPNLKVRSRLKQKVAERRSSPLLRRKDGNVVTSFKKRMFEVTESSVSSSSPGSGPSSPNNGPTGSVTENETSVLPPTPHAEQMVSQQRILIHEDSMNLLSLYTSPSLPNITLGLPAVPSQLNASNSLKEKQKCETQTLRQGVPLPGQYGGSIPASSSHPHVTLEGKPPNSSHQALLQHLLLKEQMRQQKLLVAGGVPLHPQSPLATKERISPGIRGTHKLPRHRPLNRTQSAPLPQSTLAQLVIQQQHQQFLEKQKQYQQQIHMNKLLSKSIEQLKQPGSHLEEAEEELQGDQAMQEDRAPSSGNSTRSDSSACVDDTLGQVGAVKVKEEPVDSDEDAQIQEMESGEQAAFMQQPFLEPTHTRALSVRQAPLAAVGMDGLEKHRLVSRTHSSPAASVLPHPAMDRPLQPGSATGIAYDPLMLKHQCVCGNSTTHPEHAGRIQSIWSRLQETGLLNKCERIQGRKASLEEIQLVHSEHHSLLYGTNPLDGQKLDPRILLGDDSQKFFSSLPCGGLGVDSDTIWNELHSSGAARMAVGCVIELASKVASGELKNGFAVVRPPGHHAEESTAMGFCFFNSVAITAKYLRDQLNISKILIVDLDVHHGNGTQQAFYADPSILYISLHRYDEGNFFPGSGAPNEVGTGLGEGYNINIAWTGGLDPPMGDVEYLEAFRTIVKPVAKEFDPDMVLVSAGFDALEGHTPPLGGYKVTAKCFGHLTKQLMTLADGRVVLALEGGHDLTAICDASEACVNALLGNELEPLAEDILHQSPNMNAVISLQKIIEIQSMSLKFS

[4] = molecular target: T2, Protein deacetylase HDAC6 (Homo sapiens, UniProt Q9UBN7); test: Inhibition of human recombinant HDAC6 using fluorophore-conjugated substrate Boc-L-Lys(Ac)-AMC after 60 mins
T2 sequence (Q9UBN7 whole entry): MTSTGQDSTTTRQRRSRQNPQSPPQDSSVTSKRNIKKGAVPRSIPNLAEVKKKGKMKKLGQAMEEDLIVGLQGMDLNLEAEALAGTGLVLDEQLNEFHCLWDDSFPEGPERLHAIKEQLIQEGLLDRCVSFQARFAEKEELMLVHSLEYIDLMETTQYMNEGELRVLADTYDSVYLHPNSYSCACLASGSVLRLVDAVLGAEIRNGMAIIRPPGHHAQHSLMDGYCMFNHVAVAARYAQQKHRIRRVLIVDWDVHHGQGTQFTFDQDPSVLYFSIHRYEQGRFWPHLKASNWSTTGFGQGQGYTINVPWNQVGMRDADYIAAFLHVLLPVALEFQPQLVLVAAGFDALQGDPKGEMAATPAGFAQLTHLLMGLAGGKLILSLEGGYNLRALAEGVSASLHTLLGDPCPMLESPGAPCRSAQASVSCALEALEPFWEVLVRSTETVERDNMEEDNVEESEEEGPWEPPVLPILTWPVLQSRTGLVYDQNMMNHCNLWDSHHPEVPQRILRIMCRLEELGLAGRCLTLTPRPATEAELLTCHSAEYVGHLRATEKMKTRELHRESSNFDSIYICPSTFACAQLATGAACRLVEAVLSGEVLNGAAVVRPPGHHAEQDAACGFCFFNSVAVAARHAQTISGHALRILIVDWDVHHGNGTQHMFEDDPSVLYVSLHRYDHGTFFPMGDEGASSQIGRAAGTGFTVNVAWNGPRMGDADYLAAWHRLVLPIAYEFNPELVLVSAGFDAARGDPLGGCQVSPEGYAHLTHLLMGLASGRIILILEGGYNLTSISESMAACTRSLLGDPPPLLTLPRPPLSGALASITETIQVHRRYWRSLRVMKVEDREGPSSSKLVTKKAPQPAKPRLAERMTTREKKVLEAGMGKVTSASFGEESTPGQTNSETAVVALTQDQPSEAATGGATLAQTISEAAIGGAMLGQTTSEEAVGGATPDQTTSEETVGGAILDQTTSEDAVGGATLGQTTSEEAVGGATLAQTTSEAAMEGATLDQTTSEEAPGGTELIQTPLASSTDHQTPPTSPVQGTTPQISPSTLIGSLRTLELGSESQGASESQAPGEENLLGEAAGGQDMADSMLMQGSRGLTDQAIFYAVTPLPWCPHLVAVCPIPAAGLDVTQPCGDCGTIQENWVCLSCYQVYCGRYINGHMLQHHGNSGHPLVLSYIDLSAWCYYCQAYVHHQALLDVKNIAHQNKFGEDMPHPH

Histone deacetylase 5 = Histone deacetylase 5 (Homo sapiens, UniProt Q9UQL6); test: Inhibition of human recombinant HDAC5 using fluorophore-conjugated substrate Boc-L-Lys(Ac)-AMC after 60 mins
Chain of Histone deacetylase 5 (Q9UQL6 whole entry): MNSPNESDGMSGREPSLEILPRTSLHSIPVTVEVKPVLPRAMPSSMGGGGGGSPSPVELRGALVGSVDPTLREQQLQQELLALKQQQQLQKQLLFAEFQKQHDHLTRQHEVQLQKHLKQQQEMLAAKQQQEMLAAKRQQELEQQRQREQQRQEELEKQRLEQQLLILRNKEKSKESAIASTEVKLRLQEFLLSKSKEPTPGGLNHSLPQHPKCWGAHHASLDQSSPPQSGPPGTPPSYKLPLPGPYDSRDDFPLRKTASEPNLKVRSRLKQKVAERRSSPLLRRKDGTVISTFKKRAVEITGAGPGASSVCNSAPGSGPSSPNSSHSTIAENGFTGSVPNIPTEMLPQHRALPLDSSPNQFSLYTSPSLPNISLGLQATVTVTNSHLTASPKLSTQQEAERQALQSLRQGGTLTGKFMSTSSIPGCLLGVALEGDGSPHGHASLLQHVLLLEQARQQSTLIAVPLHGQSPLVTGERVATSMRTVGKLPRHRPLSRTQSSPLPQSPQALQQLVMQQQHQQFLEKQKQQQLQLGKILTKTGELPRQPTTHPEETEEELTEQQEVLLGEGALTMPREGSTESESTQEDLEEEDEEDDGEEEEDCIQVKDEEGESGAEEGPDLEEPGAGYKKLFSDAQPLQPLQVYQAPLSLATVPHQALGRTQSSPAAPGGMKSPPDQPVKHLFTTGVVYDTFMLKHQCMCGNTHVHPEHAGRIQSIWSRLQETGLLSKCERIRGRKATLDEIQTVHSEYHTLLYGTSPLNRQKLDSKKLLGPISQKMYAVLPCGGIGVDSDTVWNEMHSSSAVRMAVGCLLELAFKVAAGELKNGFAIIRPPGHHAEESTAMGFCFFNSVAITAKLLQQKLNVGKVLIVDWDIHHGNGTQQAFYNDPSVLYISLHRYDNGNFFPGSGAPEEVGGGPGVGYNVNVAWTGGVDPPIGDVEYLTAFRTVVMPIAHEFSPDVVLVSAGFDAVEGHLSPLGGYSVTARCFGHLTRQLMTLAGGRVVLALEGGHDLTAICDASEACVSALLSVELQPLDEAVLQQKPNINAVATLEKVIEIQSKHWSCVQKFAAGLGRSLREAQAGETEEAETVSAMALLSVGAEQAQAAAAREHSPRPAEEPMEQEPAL

Histone deacetylase 4 = Histone deacetylase 4 (Homo sapiens, UniProt P56524); test: Inhibition of human recombinant HDAC4 using fluorophore-conjugated substrate Boc-L-Lys(Ac)-AMC after 60 mins
Chain of Histone deacetylase 4 (P56524 whole entry): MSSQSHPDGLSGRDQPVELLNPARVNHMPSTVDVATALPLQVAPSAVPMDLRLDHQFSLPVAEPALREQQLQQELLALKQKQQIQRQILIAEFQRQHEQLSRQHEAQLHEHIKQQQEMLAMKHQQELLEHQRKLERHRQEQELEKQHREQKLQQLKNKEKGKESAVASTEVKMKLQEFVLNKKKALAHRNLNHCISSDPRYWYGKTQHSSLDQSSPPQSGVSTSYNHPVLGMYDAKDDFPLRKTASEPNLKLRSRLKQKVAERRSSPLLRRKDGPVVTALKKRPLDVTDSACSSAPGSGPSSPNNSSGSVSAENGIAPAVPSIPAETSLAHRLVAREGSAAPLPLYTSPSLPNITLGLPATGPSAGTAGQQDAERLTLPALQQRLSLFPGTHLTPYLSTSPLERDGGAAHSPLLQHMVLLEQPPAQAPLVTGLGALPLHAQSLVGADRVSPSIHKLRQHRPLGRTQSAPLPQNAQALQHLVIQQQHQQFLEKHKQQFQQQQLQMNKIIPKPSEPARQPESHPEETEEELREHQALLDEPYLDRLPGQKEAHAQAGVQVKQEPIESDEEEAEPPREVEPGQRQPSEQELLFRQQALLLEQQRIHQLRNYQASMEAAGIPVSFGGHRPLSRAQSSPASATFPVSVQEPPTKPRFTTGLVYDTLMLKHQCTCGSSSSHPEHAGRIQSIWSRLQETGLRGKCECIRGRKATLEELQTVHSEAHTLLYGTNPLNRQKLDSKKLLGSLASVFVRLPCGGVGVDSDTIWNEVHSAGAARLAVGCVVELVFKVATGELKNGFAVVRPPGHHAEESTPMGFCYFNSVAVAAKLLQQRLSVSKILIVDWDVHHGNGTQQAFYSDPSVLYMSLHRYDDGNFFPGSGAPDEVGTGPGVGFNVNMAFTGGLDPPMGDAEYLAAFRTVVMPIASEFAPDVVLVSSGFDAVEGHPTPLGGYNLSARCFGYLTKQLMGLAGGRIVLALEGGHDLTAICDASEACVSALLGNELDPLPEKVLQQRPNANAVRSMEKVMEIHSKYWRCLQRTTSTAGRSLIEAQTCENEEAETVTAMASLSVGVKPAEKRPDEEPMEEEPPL

Histone deacetylase 2 = Histone deacetylase 2 (Homo sapiens, UniProt Q92769)
Chain of Histone deacetylase 2 (Q92769 whole entry): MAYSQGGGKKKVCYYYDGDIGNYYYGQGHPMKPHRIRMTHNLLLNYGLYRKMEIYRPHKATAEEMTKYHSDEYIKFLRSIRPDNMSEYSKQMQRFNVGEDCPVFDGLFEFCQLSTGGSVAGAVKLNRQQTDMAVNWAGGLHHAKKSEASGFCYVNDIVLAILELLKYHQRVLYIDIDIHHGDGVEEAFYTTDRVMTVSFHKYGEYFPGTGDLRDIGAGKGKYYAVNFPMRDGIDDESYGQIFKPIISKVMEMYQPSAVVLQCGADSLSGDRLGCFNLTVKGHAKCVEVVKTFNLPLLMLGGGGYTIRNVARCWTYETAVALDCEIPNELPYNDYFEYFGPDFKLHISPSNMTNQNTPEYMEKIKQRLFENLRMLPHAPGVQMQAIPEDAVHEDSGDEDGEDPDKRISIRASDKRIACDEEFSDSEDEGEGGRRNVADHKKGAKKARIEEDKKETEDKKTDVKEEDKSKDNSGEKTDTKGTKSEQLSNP

Histone deacetylase 1 = Histone deacetylase 1 (Homo sapiens, UniProt Q13547); test: Inhibition of human recombinant HDAC1 using fluorophore-conjugated substrate Boc-L-Lys(Ac)-AMC after 60 mins
Chain of Histone deacetylase 1 (Q13547 whole entry): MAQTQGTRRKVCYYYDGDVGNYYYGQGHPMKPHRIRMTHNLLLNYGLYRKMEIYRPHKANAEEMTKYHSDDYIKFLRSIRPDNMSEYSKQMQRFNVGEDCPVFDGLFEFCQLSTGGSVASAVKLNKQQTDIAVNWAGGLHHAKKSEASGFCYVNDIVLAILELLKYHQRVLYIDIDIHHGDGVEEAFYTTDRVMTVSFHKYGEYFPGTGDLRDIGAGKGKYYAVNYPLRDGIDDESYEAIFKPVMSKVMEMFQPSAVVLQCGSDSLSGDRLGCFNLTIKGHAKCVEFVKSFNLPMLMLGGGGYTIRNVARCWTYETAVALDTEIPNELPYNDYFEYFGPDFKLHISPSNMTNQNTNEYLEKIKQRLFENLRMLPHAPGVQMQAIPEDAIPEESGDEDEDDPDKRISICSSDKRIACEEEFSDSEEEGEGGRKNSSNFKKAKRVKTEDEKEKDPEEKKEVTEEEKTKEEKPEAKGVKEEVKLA

Histone deacetylase 8 = molecular target: T3, Histone deacetylase 8 (Homo sapiens, UniProt Q9BY41); test: Inhibition of human recombinant HDAC8 using Fluor de Lys as substrate
T3 sequence (Q9BY41 whole entry): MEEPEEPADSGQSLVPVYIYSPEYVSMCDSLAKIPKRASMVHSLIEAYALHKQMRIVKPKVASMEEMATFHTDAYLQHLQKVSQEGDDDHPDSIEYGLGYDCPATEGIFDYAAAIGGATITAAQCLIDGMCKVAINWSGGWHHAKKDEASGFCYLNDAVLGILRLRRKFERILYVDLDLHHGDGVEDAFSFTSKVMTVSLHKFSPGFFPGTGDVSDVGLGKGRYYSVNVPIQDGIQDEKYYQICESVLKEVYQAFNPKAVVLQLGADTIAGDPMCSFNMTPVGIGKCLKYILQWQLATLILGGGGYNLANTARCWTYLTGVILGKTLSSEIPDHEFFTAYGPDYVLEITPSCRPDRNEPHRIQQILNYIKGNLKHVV

[5] = molecular target: T4, Histone deacetylase (Homo sapiens) (UniProt Q13547+O15379+Q9UBN7+Q92769+Q9UQL6+Q8WUI4+Q9BY41+Q96DB2+P56524+Q9UKV0+Q969S8); test: Inhibition of HDAC in retinoic acid-differentiated human SH-SY5Y cells assessed as increase in histone H4 acetylation at 1 uM after 24 hrs by Western blot analysis in presence of 100 uM LY294002; type: cell-based
[6] = molecular target: T4, Histone deacetylase (Homo sapiens); test: Inhibition of HDAC in retinoic acid-differentiated human SH-SY5Y cells assessed as increase in histone H4 acetylation at 1 uM after 24 hrs by Western blot analysis; type: cell-based
SH-SY5Y [7] = test: cells; type: functional, cell-based; details: Homo sapiens, 72 h

[N-]=[N+]=NCc1cc(N=[N+]=[N-])cc(C(=O)Nc2ccc(-c3cc(C(=O)NCCCCCCC(=O)NO)no3)cc2)c1
EC50 (SH-SY5Y [1]): 32200 nM | EC50 (HeLa): 4700 nM | EC50 (HepG2 [2]): 4900 nM | EC50 (HepG2 [3]): > 50000 nM | IC50 (Histone deacetylase 11): 116 nM | IC50 (Histone deacetylase 9): 37.8 nM | IC50 [4]: 47 nM | IC50 (Histone deacetylase 5): 932 nM | IC50 (Histone deacetylase 4): 432 nM | IC50 (Histone deacetylase 2): 780 nM | IC50 (Histone deacetylase 1): 82.2 nM | IC50 (Histone deacetylase 8): 651 nM | inhibition [5]: Active | inhibition [6]: Active | EC50 (SH-SY5Y [7]): 23000 nM

[N-]=[N+]=NCc1cc(Cn2cc(NC(=O)CCCCCCC(=O)NO)cn2)cc(N=[N+]=[N-])c1
EC50 (SH-SY5Y [1]): 35900 nM | EC50 (HeLa): 15000 nM | EC50 (HepG2 [2]): 13400 nM | EC50 (HepG2 [3]): > 50000 nM | IC50 (Histone deacetylase 11): 476 nM | IC50 (Histone deacetylase 9): 704 nM | IC50 [4]: 274 nM | IC50 (Histone deacetylase 5): 892 nM | IC50 (Histone deacetylase 4): 379 nM | IC50 (Histone deacetylase 2): 1000 nM | IC50 (Histone deacetylase 1): 99.1 nM | IC50 (Histone deacetylase 8): 17 nM | inhibition [5]: Active | inhibition [6]: Active | EC50 (SH-SY5Y [7]): 20800 nM
